Test results from ChEMBL document CHEMBL2029223, “Identification of a phenylacylsulfonamide series of dual Bcl-2/Bcl-xL antagonists” (Bioorg Med Chem Lett, 2012).
Calls of active or inactive are those of the source. The calls are words filed in the database; no cut-off is given here.

How the values were obtained:
[1] = molecular target: Apoptosis regulator Bcl-2 (Homo sapiens, UniProt P10415); test: Inhibition in GST-tagged Bcl2 using [FAM]-IWIAQELRRIGDEFNAYY-NH2 as substrate after 60 mins by fluorescence polarization assay
[2] = molecular target: Bcl-2-like protein 1 (Homo sapiens, UniProt Q07817); test: Inhibition of Bcl-XL using fluoresceinated 18-mer Bim as substrate after 60 mins by FRET analysis
[3] = tested on: SUD4; test: Induction of apoptosis in human SU-DHL4 cells assessed as cytochrome c release at 10 uM after 24 hrs by Western blot analysis; format: functional, cell-based
[4] = Antiproliferative activity against human SU-DHL4 cells after 72 hrs by Cell-Titer Glo assay in presence of 2% FBS; format: functional, cell-based, SUD4; conditions: SU-DHL-4, 72 h
[5] = tested on: MV4-11; test: Antiproliferative activity against human MV411 cells after 72 hrs by Cell-Titer Glo assay in presence of 10% FBS; format: functional, cell-based; conditions: MV4-11, 72 h
[6] = Antiproliferative activity against human SU-DHL4 cells after 72 hrs by Cell-Titer Glo assay in presence of 10% FBS; format: functional, cell-based, SUD4; conditions: SU-DHL-4, 72 h
[7] = tested on: SUD4; test: Induction of apoptosis in human SU-DHL4 cells assessed as BAK oligomerization at 10 uM after 24 hrs by Western blot analysis; format: functional, cell-based
[8] = tested on: MV4-11; test: Antiproliferative activity against human MV411 cells after 72 hrs by Cell-Titer Glo assay in presence of 2% FBS; format: functional, cell-based; conditions: MV4-11, 72 h
[9] = tested on: SUD4; test: Induction of apoptosis in human SU-DHL4 cells assessed as BAK oligomerization at 0.1 to 10 uM after 24 hrs by Western blot analysis; format: functional, cell-based
[10] = tested on: SUD4; test: Induction of apoptosis in human SU-DHL4 cells assessed as cytochrome c release at 0.1 to 10 uM after 24 hrs by Western blot analysis; format: functional, cell-based

Bcl-2-like protein 1, sequence (Q07817 whole entry): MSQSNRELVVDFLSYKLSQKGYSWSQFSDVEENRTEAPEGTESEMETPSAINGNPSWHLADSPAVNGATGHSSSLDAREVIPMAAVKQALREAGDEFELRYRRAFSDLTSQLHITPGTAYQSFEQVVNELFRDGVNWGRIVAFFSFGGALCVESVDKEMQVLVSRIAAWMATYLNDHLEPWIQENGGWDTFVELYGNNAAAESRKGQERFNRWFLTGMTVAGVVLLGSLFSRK
Apoptosis regulator Bcl-2, sequence (P10415 whole entry): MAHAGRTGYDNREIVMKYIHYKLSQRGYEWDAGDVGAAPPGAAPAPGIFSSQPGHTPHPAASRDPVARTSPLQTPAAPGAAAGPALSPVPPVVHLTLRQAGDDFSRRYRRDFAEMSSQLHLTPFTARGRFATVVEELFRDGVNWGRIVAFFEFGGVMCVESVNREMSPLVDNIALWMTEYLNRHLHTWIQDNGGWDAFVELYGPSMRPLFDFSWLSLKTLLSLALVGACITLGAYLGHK

## CCCCN(CCCC)C(=O)c1nn(-c2ccc(C(=O)NS(=O)(=O)c3ccc4cccc(OCc5ccc(C(=O)O)cc5)c4c3)cc2C(=O)N2CCc3ccccc3C2)c(C)c1Cl
[1]
  IC50: 15 nM
[2]
  IC50: 17 nM

## CCCCN(CCCC)C(=O)c1nn(-c2ccc(C(=O)NS(=O)(=O)c3ccc4ccc(OCCN5CCOCC5)cc4c3)cc2C(=O)N2CCc3ccccc3C2)c(C)c1Cl
[1]
  IC50: 400 nM
[2]
  IC50: 54 nM

## CCCCN(CCCC)C(=O)c1nn(-c2ccc(C(=O)NS(=O)(=O)c3ccc4c(c3)CCN4Cc3ccc(Cl)c(Cl)c3)cc2C(=O)N2CCc3ccccc3C2)c(C)c1Cl
[3]
  Activity: Active
[4]
  IC50: > 10000 nM
[1]
  IC50: 16 nM
[5]
  IC50: > 10000 nM
[6]
  IC50: > 10000 nM
[2]
  IC50: 44 nM
[7]
  Activity: Active
[8]
  IC50: > 10000 nM

## CCCCN(CCCC)C(=O)c1nn(-c2ccc(C(=O)NS(=O)(=O)c3ccc4ccccc4c3)cc2C(=O)N2Cc3ccccc3C[C@H]2CN)c(C)c1Cl
[4]
  IC50: > 10000 nM
[1]
  IC50: 9 nM
[5]
  IC50: > 10000 nM
[6]
  IC50: > 10000 nM
[8]
  IC50: 8500 nM
[9]
  Activity: Active
[10]
  Activity: Active

## CCCCN(CCCC)C(=O)c1nn(-c2ccc(C(=O)NS(=O)(=O)c3ccc4ccccc4c3)cc2C(=O)N2CCc3ccccc3C2)c(C)c1Cl
[1]
  IC50: 32 nM
[2]
  IC50: 24 nM

## CCCCN(CCCC)C(=O)c1nn(-c2ccc(C(=O)NS(=O)(=O)c3ccc4ccccc4c3)cc2C(=O)N2Cc3ccccc3C[C@H]2CN2CCCC2)c(C)c1Cl
[4]
  IC50: 1800 nM
[1]
  IC50: 47 nM
[5]
  IC50: > 10000 nM
[6]
  IC50: > 10000 nM
[2]
  IC50: 19 nM
[8]
  IC50: 1500 nM

## CCCCN(CCCC)C(=O)c1nn(-c2ccc(C(=O)NS(=O)(=O)c3ccc4ccccc4c3)cc2C(=O)N2Cc3ccccc3C[C@H]2COCCCOC)c(C)c1Cl
[4]
  IC50: 5400 nM
[1]
  IC50: 22 nM
[5]
  IC50: > 10000 nM
[6]
  IC50: > 10000 nM
[2]
  IC50: 29 nM
[8]
  IC50: 2800 nM

## CCCCN(CCCC)C(=O)c1nn(-c2ccc(C(=O)NS(=O)(=O)c3ccc4c(c3)CCN4CC)cc2C(=O)N2CCc3ccccc3C2)c(C)c1Cl
[1]
  IC50: 78 nM
[2]
  IC50: 17 nM

## CC1(C)CCC(c2ccc(Cl)cc2)=C(CN2CCN(c3ccc(C(=O)NS(=O)(=O)c4ccc(N[C@H](CCN5CCOCC5)CSc5ccccc5)c(S(=O)(=O)C(F)(F)F)c4)cc3)CC2)C1
[9]
  Activity: Active
[10]
  Activity: Active

## CCCCN(CCCC)C(=O)c1nn(-c2ccc(C(=O)NS(=O)(=O)c3ccc4ccccc4c3)cc2C(=O)N2COc3ccccc3C2)c(C)c1Cl
[2]
  IC50: 62 nM

## CCCCN(CCCC)C(=O)c1nn(-c2ccc(C(=O)NS(=O)(=O)c3ccc4ccccc4c3)cc2C(=O)N2CCc3ccccc3C2C)c(C)c1Cl (stereo not given)
[1]
  IC50: 710 nM
[2]
  IC50: 590 nM

## CCCCN(CCCC)C(=O)c1nn(-c2ccc(C(=O)NS(=O)(=O)c3ccc4ccccc4c3)cc2C(=O)N2Cc3ccccc3C[C@H]2CN2CCN(C)CC2)c(C)c1Cl
[4]
  IC50: 9700 nM
[1]
  IC50: 140 nM
[5]
  IC50: > 10000 nM
[6]
  IC50: > 10000 nM
[2]
  IC50: 22 nM
[8]
  IC50: 4800 nM

## O=C(c1ccc(CN(Cc2ccc(F)cc2)S(=O)(=O)c2cc(Cl)cc(Cl)c2O)cc1)N(Cc1ccc(F)cc1)Cc1cc(Cl)cc(Cl)c1
[1]
  IC50: 35 nM
[2]
  IC50: > 30000 nM

## CCCCN(CCCC)C(=O)c1nn(-c2ccc(C(=O)NS(=O)(=O)c3ccc4ccccc4c3)cc2C(=O)N2Cc3ccccc3C[C@H]2CO)c(C)c1Cl
[4]
  IC50: > 10000 nM
[1]
  IC50: 35 nM
[5]
  IC50: > 10000 nM
[6]
  IC50: > 10000 nM
[8]
  IC50: > 10000 nM
[9]
  Activity: Active
[10]
  Activity: Active

## CCCCN(CCCC)C(=O)c1nn(-c2ccc(C(=O)NS(=O)(=O)c3ccc4cccc(S(=O)(=O)CC)c4c3)cc2C(=O)N2CCc3ccccc3C2)c(C)c1Cl
[1]
  IC50: 180 nM
[2]
  IC50: 150 nM

## CCCCN(CCCC)C(=O)c1nn(-c2ccc(C(=O)NS(=O)(=O)c3ccc4cccc(OCCN5CCOCC5)c4c3)cc2C(=O)N2CCc3ccccc3C2)c(C)c1Cl
[2]
  IC50: 41 nM

## CCCCN(CCCC)C(=O)c1nn(-c2ccc(C(=O)NS(=O)(=O)c3ccc4ccc(I)cc4c3)cc2C(=O)N2CCc3ccccc3C2)c(C)c1Cl
[2]
  IC50: 47 nM

## CCCCN(CCCC)C(=O)c1nn(-c2ccc(C(=O)NS(=O)(=O)c3ccc4ccccc4c3)cc2C(=O)N2CNc3ccccc3C2)c(C)c1Cl
[1]
  IC50: 26 nM
[2]
  IC50: 26 nM

## CCCCN(CCCC)C(=O)c1nn(-c2ccc(C(=O)NS(=O)(=O)c3ccc4ccccc4c3)cc2C(=O)N2Cc3ccccc3C[C@H]2COCCN(C)C)c(C)c1Cl
[1]
  IC50: 37 nM
[2]
  IC50: 47 nM

## CCCCN(CCCC)C(=O)c1nn(-c2ccc(C(=O)NS(=O)(=O)c3ccc4ccccc4c3)cc2C(=O)N2Cc3ccccc3C[C@H]2CN2CCOCC2)c(C)c1Cl
[4]
  IC50: 6300 nM
[1]
  IC50: 14 nM
[5]
  IC50: > 10000 nM
[6]
  IC50: > 10000 nM
[2]
  IC50: 16 nM
[8]
  IC50: 3000 nM

## CCCCN(CCCC)C(=O)c1nn(-c2ccc(C(=O)NS(=O)(=O)c3ccc4c(c3)CCN4)cc2C(=O)N2CCc3ccccc3C2)c(C)c1Cl
[1]
  IC50: 32 nM
[2]
  IC50: 23 nM

## CCCCN(CCCC)C(=O)c1nn(-c2ccc(C(=O)NS(=O)(=O)c3ccc4c(c3)CCN4C(=O)c3ccc(Cl)c(Cl)c3)cc2C(=O)N2CCc3ccccc3C2)c(C)c1Cl
[1]
  IC50: 280 nM
[2]
  IC50: 550 nM

## CCCCN(CCCC)C(=O)c1nn(-c2ccc(NS(=O)(=O)c3cc(Cl)cc(Cl)c3O)cc2C(=O)N2CCc3ccccc3C2)c(C)c1Cl
[1]
  IC50: 910 nM
[2]
  IC50: 4300 nM
